Ten compounds from US20250230193A1, “CYCLIC COMPOUND HAVING SELECTIVE KRAS INHIBITORY EFFECT ON HRAS AND NRAS” (CHUGAI SEIYAKU KABUSHIKI KAISHA, priority 2022, published 2025) can be followed below.

Where a SMILES comes first, the peptide text is derived from it. Bridges are numbered along the chain shown (N, C = ends). [ ]: non-standard residue; d: D form. The star is where a group is joined. hPhe(3,5-F2-4-CF3) = N[C@@H](CCc1cc(F)c(C(F)(F)F)c(F)c1)C(=O)O; hPhe(3-Cl-4-CF3) = N[C@@H](CCc1ccc(C(F)(F)F)c(Cl)c1)C(=O)O; NPrPhe(4-CF3) = CCCN[C@@H](Cc1ccc(C(F)(F)F)cc1)C(=O)O; NMeAbu(4,4,4-F3) = CN[C@@H](CC(F)(F)F)C(=O)O; NMePhe(4-Me) = CN[C@@H](Cc1ccc(C)cc1)C(=O)O; NMeGly(cPent) = CN[C@H](C(=O)O)C1CCCC1; NMeD = CN[C@@H](CC(=O)O)C(=O)O; NMeL = CN[C@@H](CC(C)C)C(=O)O; Morpholide = C1CN(*)CCO1; Pyrrolidide = C1CCN(*)C1; Ac5c = NC1(C(=O)O)CCCC1; NEtG = CCNCC(=O)O; Sar = CNCC(=O)O

The target in experiment [1] is GDP-bound NRAS wild-type protein (Homo sapiens, UniProt P01111). Nature of the experiment: Binding to NRAS by surface plasmon resonance (SPR), Single Cycle Kinetics. Particulars: for NRAS/KRAS (ratio of KD value for NRAS to KD value for KRAS) / NRAS/KRAS (ratio of KD value with respect to NRAS to KD value with respect to KRAS): GDP-bound NRAS wild-type vs GDP-bound KRAS wild-type. (SPR reads the build-up and loss of mass on a sensor chip optically.)
Chain of GDP-bound NRAS wild-type protein (P01111 whole entry): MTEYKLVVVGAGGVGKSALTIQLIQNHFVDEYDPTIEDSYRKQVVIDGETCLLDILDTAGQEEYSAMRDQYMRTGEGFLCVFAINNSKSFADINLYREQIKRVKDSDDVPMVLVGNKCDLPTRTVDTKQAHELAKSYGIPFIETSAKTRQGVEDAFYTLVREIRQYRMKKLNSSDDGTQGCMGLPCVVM

For experiment [2], the target named is GDP-bound HRAS wild-type protein (Homo sapiens, UniProt P01112). In words: Binding to HRAS by surface plasmon resonance (SPR), Single Cycle Kinetics. To be noted: for HRAS/KRAS (ratio of KD value for HRAS to KD value for KRAS) / HRAS/KRAS (ratio of KD value with respect to HRAS to KD value with respect to KRAS): GDP-bound HRAS wild-type vs GDP-bound KRAS wild-type.
Chain of GDP-bound HRAS wild-type protein (P01112 whole entry): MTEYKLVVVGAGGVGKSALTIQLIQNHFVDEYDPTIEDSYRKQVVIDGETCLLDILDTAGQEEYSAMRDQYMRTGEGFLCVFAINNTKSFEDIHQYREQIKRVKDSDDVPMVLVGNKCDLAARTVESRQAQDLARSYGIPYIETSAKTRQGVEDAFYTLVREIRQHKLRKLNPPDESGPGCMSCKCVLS

Setting [3] is: SPR, GDP-bound wild-type proteins.

As to `CCCN1C(=O)CN(C)C(=O)CN(C)C(=O)[C@H]([C@@H](C)CC)NC(=O)[C@H](CC(C)C)N(C)C(=O)C[C@@H](C(=O)N(C)C)N(C)C(=O)[C@H](CC(F)(F)F)N(C)C(=O)C2(CCCC2)NC(=O)[C@@H]2CCCN2C(=O)[C@H](CCc2cc(F)c(C(F)(F)F)c(F)c2)NC(=O)CN(C)C(=O)[C@@H]1Cc1ccc(C(F)(F)F)cc1` [PP0746] ([NMeL]I[Sar][Sar][NPrPhe(4-CF3)][Sar][hPhe(3,5-F2-4-CF3)]P[Ac5c][NMeAbu(4,4,4-F3)][NMeD]-NMe2; lactam N-11), in experiment [1] (SPR), the “NRAS/KRAS (ratio of KD value with respect to GDP-bound NRAS wild-type protein to KD value with respect to KRAS)” value was “B (a compound having 3 or more and less than 10 is denoted as B)”. In experiment [2] (SPR), the “HRAS/KRAS (ratio of KD value with respect to GDP-bound HRAS wild-type protein to KD value with respect to KRAS)” value was “C (A compound having a KD ratio of 0.1 or more and less than 3 is denoted as C)”.
Regarding `CCO[C@@H]1C[C@H]2C(=O)N(C)C3(CCC3)C(=O)N(C)[C@@H](C3CCCC3)C(=O)N(C)[C@H](C(=O)N(C)C)CC(=O)N(C)[C@@H](CC)C(=O)N[C@@H]([C@@H](C)CC)C(=O)N(C)CC(=O)N(C)[C@H]3C/C=C\CCN(C3=O)[C@@H](Cc3ccc(C)cc3)C(=O)N(C)CC(=O)N[C@@H](CCc3cc(F)c(C(F)(F)F)c(F)c3)C(=O)N2C1` [PP1781], the “NRAS/KRAS (ratio of KD value for NRAS to KD value for KRAS)” value in experiment [1] (SPR) is “A (a compound having 10 or more and less than 20 is denoted as A)”. Moreover, the “HRAS/KRAS (ratio of KD value for HRAS to KD value for KRAS)” value in experiment [2] (SPR) was “B (a compound having 3 or more and less than 10 is denoted as B)”.
Consider `CCO[C@@H]1C[C@H]2C(=O)NC3(CC(C)(C)C3)C(=O)N(C)[C@@H](C(CC)CC)C(=O)N(C)[C@H](C(=O)N(C)C)CC(=O)N(C)[C@H]3CCCCC/C=C/c4ccc(cc4)C[C@@H](C(=O)N(C)CC(=O)N[C@@H](CCc4ccc(Cl)c(Cl)c4)C(=O)N2C1)N1CC/C=C\C[C@@H](C1=O)N(C)C(=O)CN(C)C(=O)[C@H]([C@@H](C)CC)NC3=O` [PP3050], for which the “NRAS/KRAS (ratio of KD value with respect to GDP-bound NRAS wild-type protein to KD value with respect to KRAS)” value in experiment [1] (setting [3]) is “AA (a compound having 20 or more is denoted as AA)”. For the same compound, the “HRAS/KRAS (ratio of KD value with respect to GDP-bound HRAS wild-type protein to KD value with respect to KRAS)” value in experiment [2] (setting [3]) is “A (a compound having 10 or more and less than 20 is denoted as A)”.
On to `CCO[C@@H]1C[C@H]2C(=O)NC3(CC(C)(C)C3)C(=O)N(C)[C@@H](C3CCCC3)C(=O)N(C)[C@H](C(=O)N(C)C)CC(=O)N(C)[C@@H](CC3CC3)C(=O)N[C@@H]([C@@H](C)CC)C(=O)N(C)CC(=O)N(C)[C@H]3C/C=C\CCN(C3=O)[C@@H](Cc3ccc(C(F)(F)F)cc3)C(=O)N(C)CC(=O)N[C@@H](CCc3ccc(C(F)(F)F)c(Cl)c3)C(=O)N2C1` [PP1749], for which the “NRAS/KRAS (ratio of KD value for NRAS to KD value for KRAS)” value in experiment [1] (SPR) was “A (a compound having 10 or more and less than 20 is denoted as A)”. For the same compound, the “HRAS/KRAS (ratio of KD value for HRAS to KD value for KRAS)” value in experiment [2] (SPR) was “A (a compound having 10 or more and less than 20 is denoted as A)”.
On to `CCC[C@H]1C(=O)N[C@@H]([C@@H](C)CC)C(=O)N(C)CC(=O)N(C)[C@H]2C/C=C\CCN(C2=O)[C@@H](Cc2ccc(C(F)(F)F)cc2)C(=O)N(C)CC(=O)N[C@@H](CCc2cc(Cl)c3sccc3c2)C(=O)N2C[C@H](OCC)C[C@H]2C(=O)NC2(CC(C)(C)C2)C(=O)N(C)[C@@H](C(CC)CC)C(=O)N(C)[C@H](C(=O)N(C)C)CC(=O)N1C` [PP2888], for which the “NRAS/KRAS (ratio of KD value with respect to GDP-bound NRAS wild-type protein to KD value with respect to KRAS)” value in experiment [1] (class symbols) is reported as “AA (a compound having 20 or more is denoted as AA)”. Besides, in experiment [2] (class symbols), the “HRAS/KRAS (ratio of KD value with respect to GDP-bound HRAS wild-type protein to KD value with respect to KRAS)” value is “A (a compound having 10 or more and less than 20 is denoted as A)”.
With `CCOC[C@H]1C(=O)N[C@@H]([C@@H](C)CC)C(=O)N(C)CC(=O)N(C)[C@H]2C/C=C\CCN(C2=O)[C@@H](CC2CCC(F)(F)CC2)C(=O)N(C)CC(=O)N[C@@H](CCc2ccc(C(F)(F)F)c(OC)c2)C(=O)N2C[C@@H](C)C[C@H]2C(=O)NC2(CC(C)(C)C2)C(=O)N(C)[C@@H](C(CC)CC)C(=O)N(C)[C@H](C(=O)N(C)C)CC(=O)N1C` [PP2458], the “NRAS/KRAS (ratio of KD value with respect to NRAS to KD value with respect to KRAS)” value in experiment [1] (SPR) is “A (a compound having 10 or more and less than 20 is denoted as A)”. In addition, in experiment [2] (SPR), the “HRAS/KRAS (ratio of KD value with respect to HRAS to KD value with respect to KRAS)” value is “A (a compound having 10 or more and less than 20 is denoted as A)”.
For `CCOC[C@H]1C(=O)N[C@@H]([C@@H](C)CC)C(=O)N(C2CC2)CC(=O)N(C)[C@H]2C/C=C\CCN(C2=O)[C@@H](Cc2ccc(C)cc2)C(=O)N(C)CC(=O)N[C@@H](CCc2ccc(Cl)c(Cl)c2)C(=O)N2C[C@H](OCC)C[C@H]2C(=O)NC2(CC(C)(C)C2)C(=O)N(C)[C@@H](CC2CCC2)C(=O)N(C)[C@H](C(=O)N(C)C)CC(=O)N1C` [PP2762], the “NRAS/KRAS (ratio of KD value with respect to GDP-bound NRAS wild-type protein to KD value with respect to KRAS)” value in experiment [1] (class symbols) was “A (a compound having 10 or more and less than 20 is denoted as A)”. Also, the “HRAS/KRAS (ratio of KD value with respect to GDP-bound HRAS wild-type protein to KD value with respect to KRAS)” value in experiment [2] (class symbols) is “A (a compound having 10 or more and less than 20 is denoted as A)”.
`CCC[C@H]1C(=O)N[C@@H]([C@@H](C)CC)C(=O)N2CCC[C@H]2C(=O)N(C)[C@H]2C/C=C\CCN(C2=O)[C@@H](Cc2ccc(C)cc2)C(=O)N(C)CC(=O)N[C@@H](CCc2ccc(C(F)(F)F)c(OC)c2)C(=O)N2C[C@H](OCC)C[C@H]2C(=O)N(C)C2(CCC2)C(=O)N(C)[C@@H](C2CCCC2)C(=O)N(C)[C@H](C(=O)N(C)C)CC(=O)N1C` [PP2332]: the “NRAS/KRAS (ratio of KD value with respect to NRAS to KD value with respect to KRAS)” value in experiment [1] (SPR) is “A (a compound having 10 or more and less than 20 is denoted as A)”. In addition, the “HRAS/KRAS (ratio of KD value with respect to HRAS to KD value with respect to KRAS)” value in experiment [2] (SPR) was “B (a compound having 3 or more and less than 10 is denoted as B)”.
With `CCCN1C(=O)CN(C)C(=O)CN(C)C(=O)[C@H]([C@@H](C)CC)NC(=O)[C@H](CC(C)C)N(C)C(=O)C[C@@H](C(=O)N2CCCC2)N(C)C(=O)[C@H](C2CCCC2)N(C)C(=O)C2(CCCC2)NC(=O)[C@@H]2CCCN2C(=O)[C@H](CCc2ccc(C(F)(F)F)c(Cl)c2)NC(=O)CN(C)C(=O)[C@@H]1Cc1ccc(C(F)(F)F)cc1` [PP0170] ([NMeL]I[Sar][Sar][NPrPhe(4-CF3)][Sar][hPhe(3-Cl-4-CF3)]P[Ac5c][NMeGly(cPent)][NMeD]-Pyrrolidide; lactam N-11), the “NRAS/KRAS (ratio of KD for GDP-bound NRAS wild-type to KD for KRAS)” value in experiment [1] (SPR) was “B (a compound having 3 or more and less than 10 is denoted as B)”. Further, the “HRAS/KRAS (ratio of KD for GDP-bound HRAS wild-type to KD for KRAS)” value in experiment [2] (SPR) was “B (a compound having 3 or more and less than 10 is denoted as B)”.
As for `CC[C@H](C)[C@@H]1NC(=O)[C@H](CC(C)C)N(C)C(=O)C[C@@H](C(=O)N2CCOCC2)N(C)C(=O)[C@H](C2CCCC2)N(C)C(=O)C2(CCCC2)NC(=O)[C@@H]2CCCN2C(=O)[C@H](CCc2ccc(C(F)(F)F)c(Cl)c2)NC(=O)CN(C)C(=O)[C@H](Cc2ccc(C)cc2)N(C)C(=O)CN(CC)C(=O)CN(C)C1=O` [PP0019] ([NMeL]I[Sar][NEtG][NMePhe(4-Me)][Sar][hPhe(3-Cl-4-CF3)]P[Ac5c][NMeGly(cPent)][NMeD]-Morpholide; lactam N-11), the “NRAS/KRAS (ratio of KD for GDP-bound NRAS wild-type to KD for KRAS)” value in experiment [1] (SPR) was “C (A compound having a KD ratio of 0.1 or more and less than 3 is denoted as C)”. Further, the “HRAS/KRAS (ratio of KD for GDP-bound HRAS wild-type to KD for KRAS)” value in experiment [2] (SPR) is “C (A compound having a KD ratio of 0.1 or more and less than 3 is denoted as C)”.
